# Measurements taken from ChEMBL document CHEMBL1201862, “PubChem BioAssay data set” (2004).
# Activity calls are given as the source filed them.
# Experiments:
# [1] = molecular target: Eukaryotic translation initiation factor 4E (Mus musculus, UniProt P63073); experiment: eIF4E–eIF4G protein interaction inhibitors, dose response, biochemical, TR-FRET (AID 855); format: functional;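 further: potency for disrupting eIF4E binding to eIF4GI seen as loss of FRET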
# Aminopeptidase N = molecular target: T1, Aminopeptidase N (Plasmodium falciparum FcB1/Columbia, UniProt O96935); experiment: P. falciparum M1AAP inhibitors, biochemical, fluorogenic H-Leu-NHMec substrate, 1536-well (AID 1445); parameters: species or system Plasmodium falciparum 3D7, 3D7
# T1 sequence (O96935 whole entry): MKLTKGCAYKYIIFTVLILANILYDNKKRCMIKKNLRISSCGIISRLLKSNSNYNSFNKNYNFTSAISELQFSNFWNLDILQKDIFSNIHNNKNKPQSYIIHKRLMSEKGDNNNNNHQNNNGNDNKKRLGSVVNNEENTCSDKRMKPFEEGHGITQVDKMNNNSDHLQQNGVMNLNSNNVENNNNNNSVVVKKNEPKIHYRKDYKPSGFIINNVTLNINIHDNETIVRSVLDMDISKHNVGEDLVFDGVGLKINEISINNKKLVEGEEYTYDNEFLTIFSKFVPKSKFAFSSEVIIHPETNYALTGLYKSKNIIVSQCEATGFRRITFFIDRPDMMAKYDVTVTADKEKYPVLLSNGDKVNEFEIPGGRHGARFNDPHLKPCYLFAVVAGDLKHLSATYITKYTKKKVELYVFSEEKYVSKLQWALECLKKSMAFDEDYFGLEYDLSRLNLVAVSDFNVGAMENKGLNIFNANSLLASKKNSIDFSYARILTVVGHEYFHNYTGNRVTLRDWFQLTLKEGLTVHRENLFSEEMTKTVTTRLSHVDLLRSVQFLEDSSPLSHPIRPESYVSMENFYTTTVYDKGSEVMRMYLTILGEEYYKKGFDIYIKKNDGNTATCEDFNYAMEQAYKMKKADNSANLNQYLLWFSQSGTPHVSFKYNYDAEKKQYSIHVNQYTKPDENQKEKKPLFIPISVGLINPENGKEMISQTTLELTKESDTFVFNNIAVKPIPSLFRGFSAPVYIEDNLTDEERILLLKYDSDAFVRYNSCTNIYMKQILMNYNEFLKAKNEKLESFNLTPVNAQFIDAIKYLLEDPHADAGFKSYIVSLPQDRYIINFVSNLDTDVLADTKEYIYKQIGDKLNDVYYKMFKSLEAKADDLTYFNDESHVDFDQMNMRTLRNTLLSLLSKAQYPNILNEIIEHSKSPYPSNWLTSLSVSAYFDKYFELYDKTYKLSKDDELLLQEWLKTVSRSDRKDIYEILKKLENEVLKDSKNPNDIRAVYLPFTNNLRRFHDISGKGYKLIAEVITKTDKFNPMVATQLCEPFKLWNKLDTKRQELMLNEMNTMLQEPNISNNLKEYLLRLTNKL
# Vero [2] = experiment: cells; format: functional; settings: Chlorocebus sabaeus
# [3] = HEp-2 cell cytotoxicity, dose response, cytotoxicity control for RSV inhibitor project, HTS (AID 2410); format: functional; settings: human respiratory syncytial virus
# BJ [4] = experiment: cells; format: functional, cell-based, Homo sapiens; settings: Homo sapiens, BJ
# [5] = cytotoxicity toward DRD oncogenic fibroblasts, dose response, cell-based, non-viral oncogenic, luminescence (AID 1934); format: functional; settings: Homo sapiens
# BJ [6] = experiment: cytotoxicity toward BJ-TERT-LT-ST fibroblasts, dose response, cell-based, RAS-independent, luminescence (AID 1935); format: functional; settings: Homo sapiens;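 further: BJ fibroblasts immortalized with TERT plus LT and ST oncogenes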
# Vero [7] = experiment: cells; format: functional, cell-based; settings: Chlorocebus sabaeus
# cells [8] = experiment: cells
# BJ [9] = experiment: cytotoxicity toward BJ-TERT fibroblasts, dose response, cell-based, RAS-independent, luminescence (AID 1933); format: functional; settings: Homo sapiens
# [10] = molecular target: NAD-dependent protein deacylase sirtuin-5, mitochondrial (Homo sapiens, UniProt Q9NXA8); experiment: SIRT5 desuccinylase inhibitors, dose response, biochemical, fluorescence imaging, cherry-pick, set 5 (AID 720591);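 further: desuccinylation of succinyl peptide AMC substrate read as fluorescence after trypsin release; potency of inhibitors that lower fluorescence and may act on trypsin instead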
# Major prion protein = Major prion protein (Homo sapiens, UniProt P04156); format: functional, cell-based
# cells [11] = experiment: cells; remark: listed apart in the source
# Leucine aminopeptidase = molecular target: T2, Leucine aminopeptidase (Plasmodium falciparum 3D7, UniProt Q8IL11); experiment: P. falciparum M17LAP inhibitors, primary screen, biochemical, fluorogenic H-Leu-NHMec substrate, 1536-well (AID 1619); format: functional
# T2 sequence (Q8IL11 whole entry): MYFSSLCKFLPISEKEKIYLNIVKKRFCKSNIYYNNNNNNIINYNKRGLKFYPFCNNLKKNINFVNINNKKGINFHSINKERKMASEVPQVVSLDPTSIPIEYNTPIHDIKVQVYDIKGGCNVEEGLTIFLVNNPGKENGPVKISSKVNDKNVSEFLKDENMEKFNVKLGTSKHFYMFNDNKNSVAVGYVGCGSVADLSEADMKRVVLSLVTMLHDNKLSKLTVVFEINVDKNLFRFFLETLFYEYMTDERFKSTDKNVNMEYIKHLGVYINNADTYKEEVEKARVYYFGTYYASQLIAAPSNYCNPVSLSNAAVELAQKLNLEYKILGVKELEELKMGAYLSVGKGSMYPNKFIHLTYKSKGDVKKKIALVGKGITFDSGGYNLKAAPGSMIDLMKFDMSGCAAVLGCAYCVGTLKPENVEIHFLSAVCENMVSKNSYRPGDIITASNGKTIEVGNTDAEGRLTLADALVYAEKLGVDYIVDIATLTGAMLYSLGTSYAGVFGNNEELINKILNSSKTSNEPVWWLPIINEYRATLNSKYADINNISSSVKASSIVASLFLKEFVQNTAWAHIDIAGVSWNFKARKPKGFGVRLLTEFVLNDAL
# cells [12] = format: functional, cell-based
# HEK293 = experiment: inhibitors of LMP1-driven NF-kB reporter, dose response, cell-based, HEK293, luciferase, cherry-pick (AID 588343); format: functional; settings: Homo sapiens
# INS1 = experiment: beta cell apoptosis inhibitors, cytokine rescue, dose response, luminescence, retest (AID 449756); format: functional, cell-based; settings: Rattus norvegicus;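 further: cell death triggered by IL-1 beta plus TNF-alpha plus IFN-gamma mixture; protective hits raise ATP signal compared with cytokine alone wells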
# [13] = NIH-3T3 fibroblast cytotoxicity, dose response, cytotoxicity control, cell-based, fluorescence, Alamar Blue, secondary assay (AID 2327); format: functional;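 further: NIH-3T3 mouse fibroblasts cultured with fluconazole at 8 µg/mL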
# [14] = C. albicans growth with fluconazole, confirmation, fluorescence, retest (AID 2467); format: functional, cell-based
# [15] = cytotoxicity in HEK-293T cells, dose response, cytotoxicity control for TCR NF-kB inhibitor project, luminescence, T-cell screen hits (AID 489026); format: functional, cell-based;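 further: cells exposed to compound about 14 hours before the viability readout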
# cells [16] = format: functional, cell-based; remark: listed apart in the source
# [17] = A cytotoxicity screen of small molecule inhibitors of the PhoP region in Salmonella typhi identified in the primary screen. [Related pubchem assays: 1850, 1864, 1985 ]; format: functional
# Paired box protein Pax-8 = Paired box protein Pax-8 (Homo sapiens, UniProt Q06710); experiment: inhibitors of PAX8-driven TPO luciferase reporter, dose response, RMG-I cells, cherry-pick (AID 687027); format: functional, cell-based;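 further: luciferase reporter driven by Pax8 target thyroperoxidase promoter measured by SteadyGlo luminescence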
# [18] = cytotoxicity in OVCAR8 ovarian cancer cells, dose response, PAX8 project, cell-based, plate reader, dry powder samples (AID 743197); format: functional; settings: OVCAR-8
# [19] = NIH:OVCAR-3 ovarian cancer cell cytotoxicity, dose response, PAX8 inhibitor project, plate reader, dry powder samples (AID 743044); format: functional, cell-based
# [20] = molecular target: T3, Calpain-2 catalytic subunit (Sus scrofa, UniProt P43367); experiment: pig calpain II inhibitor potency, dose response, biochemical, fluorogenic peptide substrate (AID 1420); format: functional
# T3 sequence (P43367 whole entry): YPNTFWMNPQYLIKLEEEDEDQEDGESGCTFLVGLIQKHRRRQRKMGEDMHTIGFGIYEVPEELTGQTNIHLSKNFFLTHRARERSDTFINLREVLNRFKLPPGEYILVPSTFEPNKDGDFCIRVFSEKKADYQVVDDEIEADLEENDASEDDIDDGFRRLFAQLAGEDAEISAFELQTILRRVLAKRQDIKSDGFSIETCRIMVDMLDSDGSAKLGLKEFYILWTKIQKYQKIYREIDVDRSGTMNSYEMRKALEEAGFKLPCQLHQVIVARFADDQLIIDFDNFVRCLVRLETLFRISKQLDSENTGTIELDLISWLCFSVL
# Escherichia coli = experiment: microbe, parasite or virus in culture
# [21] = ZM109 Env clade C HIV-1 fusion inhibitors, dose response, HeLa effector, CEM target cells, luciferase, cherry-pick (AID 652058); format: functional, cell-based
# [22] = inhibitors of HIV Env-driven cell fusion, dose response, cherry-pick (AID 652057); format: functional, cell-based
# [23] = off-target signal loss in HeLa-CEM21 co-culture – HeLa F-luc CTL cells, cherry-picked, counter-screen for HIV-1 Env fusion inhibitor project, dose response (AID 652040); format: functional, cell-based;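 further: potency for signal decrease marking cytotoxic or nonspecific inhibition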
# [24] = CEM21 lymphoblast cell cytotoxicity, dose response, cytotoxicity control for viral fusion inhibitor project, CellTiter-Glo luminescence, cherry-picked (AID 652042); format: functional, cell-based;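 further: potency for signal decrease meaning cytotoxicity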
smiles,measurement,setting,value
Cc1ccc(C(C)C)c(OCc2nc(-c3nonc3N)no2)c1,IC50,[1],> 64 µM (inactive)
O=C(O)Cn1cc(/C=C2/SC(=O)N(CC(=O)N3CCCCCC3)C2=O)c2ccccc21,IC50,Aminopeptidase N,82.3 µM (active)
CCOC(=O)C1=C(NC(=S)NC(=O)c2ccccc2)c2ccccc2CC1C(C)C (centres undefined),CC50,Vero [2],> 25 µM (active)
same,CC50,[3],9.61 µM (active)
same,EC50,BJ [4],54.1 µM (inconclusive)
same,EC50,[5],60.6 µM (active)
same,EC50,BJ [6],> 150 µM (not active)
same,IC50,Vero [7],9.18 µM (active)
same,IC50,cells [8],3.58 µM (active)
same,EC50,BJ [9],> 150 µM (not active)
Cc1c(Cl)cccc1NC(=O)CCC(=O)NNC(=O)c1ccccc1Cl,IC50,[1],> 64 µM (inactive)
COC(=O)[C@@]12C[C@@H](CC(=O)NCc3ccccc3)C(=O)N(Cc3ccccc3)C1=CCC(C)(C)C2,AC50,[10],19.1 µM (active)
CC(=O)c1cccc(NC(=O)c2nc(-c3ccccc3)oc2C)c1,IC50,[1],50 µM (inactive)
CCc1cc2cccc(C)c2nc1SCC(=O)NNC(=O)c1ccco1,IC50,Major prion protein,3.73 µM (active)
same,IC50,cells [11],> 138 µM (inactive)
COc1ccccc1N1CCN(C(=O)CSc2nc(-c3ccccc3)cc(=O)[nH]2)CC1,IC50,Leucine aminopeptidase,16 µM (active)
COc1cccc(/C=N/NC(=O)c2[nH]nc3c2CCc2ccccc2-3)c1O,EC50,cells [12],> 350 µM (not active)
same,AC50,HEK293,5.71 µM (active)
same,AC50,INS1,0.796 µM (active)
same,EC50,[13],9.81 µM (active)
same,EC50,[14],1.49 µM (active)
same,IC50,[15],54 µM (inactive)
same,EC50,cells [16],9.85 µM (active)
CC1=C(c2ccccc2)SC2=NCCN21,EC50,[17],> 50 µM (active)
same,AC50,[10],> 30 µM (inactive)
Cc1cc(Br)c(NC(=O)COC(=O)CC2CC3CCC2C3)c(Br)c1 (centres undefined),AC50,[10],21.8 µM (active)
C[C@@H]1CCCCO[C@@H](CN(C)S(=O)(=O)c2ccc(F)cc2)[C@H](C)CN([C@H](C)CO)C(=O)c2cc(NS(=O)(=O)c3ccc(Cl)cc3)ccc2O1,AC50,Paired box protein Pax-8,5.05 µM (active)
same,AC50,[18],> 70 µM (inactive)
same,AC50,[19],48.9 µM (active)
Cc1ccc(C(C(=O)NC2CCCC2)N(C(=O)Cc2cccs2)c2ccc(C)c(C)c2)o1 (centres undefined),IC50,[20],10.9 µM (not active)
Cc1ccccc1NC(=O)CCN1CCN(CCO)CC1,AC50,Escherichia coli,23.6 µM (active)
CC(C)N(C(=O)c1sc2cc([N+](=O)[O-])ccc2c1Cl)C(C)C,IC50,[20],1.98 µM (not active)
CCn1ncc(C2=NOC(C(=O)NCc3ccc(Cl)cc3)C2)c1C (centres undefined),IC50,[15],> 80 µM (inactive)
C=CCNC(=S)N/N=C/c1ccc(C(C)(C)C)cc1,IC50,[20],10.9 µM (not active)
COc1cc(-c2[nH]ncc2CN2CCN(Cc3cccs3)CC2)cc(OC)c1OC,IC50,[1],50 µM (inactive)
O=C(CSc1nnc[nH]1)Nc1ccc2c(c1)OCCO2,IC50,Leucine aminopeptidase,64.9 µM (active)
CCOC(=O)Cn1c(-c2nonc2NC(=O)c2ccccc2F)nc2ccccc21,CC50,[3],> 6.25 µM (active)
same,IC50,Vero [7],0.98 µM (active)
same,IC50,cells [8],4.57 µM (active)
C[C@H](CO)N1C[C@H](C)[C@H](CN(C)S(=O)(=O)c2ccc(Cl)cc2)OCCCC[C@H](C)Oc2ccc(NS(=O)(=O)c3ccc(Cl)cc3)cc2C1=O,AC50,Paired box protein Pax-8,5.86 µM (active)
same,AC50,[18],58.9 µM (active)
same,AC50,[19],34.3 µM (active)
Cc1ccc(S(=O)(=O)N(C)C)cc1NC(=O)C(C)N(C)CCOc1ccc(Cl)cc1 (centres undefined),AC50,[21],1.85 µM (active)
same,AC50,[22],18.7 µM (active)
same,AC50,[23],39.3 µM (active)
same,AC50,[24],57 µM (active)
CC1CC(=O)N(CC(=O)Nc2ccc3c(c2)OCO3)c2ccccc2S1 (centres undefined),IC50,Leucine aminopeptidase,21.9 µM (active)
Cc1cc(C)nc(NS(=O)(=O)c2ccc(NC(=O)CSc3nc(O)c(C#N)c(-c4ccccc4)n3)cc2)n1,IC50,Major prion protein,6.28 µM (active)
same,IC50,cells [11],> 138 µM (inactive)
Cc1cnc(NC(=O)COc2cccc3c2OC(C)(C)C3)s1,CC50,Vero [2],> 25 µM (active)
same,CC50,[3],30.2 µM (active)
same,IC50,Vero [7],13 µM (active)
same,IC50,cells [8],22.2 µM (active)
CCOC(=O)CSc1ccc2ccccc2n1,IC50,Major prion protein,9.54 µM (active)
same,IC50,cells [11],> 138 µM (inactive)
CCCN(c1ccc(OCC)cc1)S(=O)(=O)c1ccc2c(c1)NC(=O)CO2,IC50,Major prion protein,13.1 µM (inactive)
same,IC50,cells [11],> 138 µM (inactive)
Nc1nc(O)c2ncn([C@@H]3O[C@H](CNCc4ccc(OCCCN5CCOCC5)cc4)[C@@H](O)[C@H]3O)c2n1,AC50,[10],> 30 µM (inactive)
Cc1cccc(C)c1NC(=O)CSc1ncnc2nc[nH]c12,IC50,Leucine aminopeptidase,39.9 µM (active)
